Assay: Safety (adverse events, NCI CTCAE v4.0), dose-escalation phase
[1] = dose-escalation QD × 5dQW 7–13 mg
[2] = dose-escalation Total (n = 116)

Procedure: Patients who received ≥1 dose of sapanisertib were included in the safety population. […] Adverse events (AEs) were assessed using the National Cancer Institute Common Terminology Criteria for Adverse Events, v4.0. Patients were provided with a home blood-glucose meter to monitor their fasting predose blood-glucose measurements to assess hyperglycaemia as an on-target AE and PD marker.

For `CC(C)n1nc(-c2ccc3oc(N)nc3c2)c2c(N)ncnc21` [Sapanisertib], the “Fatigue, treatment-related grade ≥3 AE” value [1] was 2 (9) n (%), the “Headache, treatment-related AE” value [1] was 1 (5) n (%) and the “Hypercholesterolemia, treatment-related AE” value [1] was 1 (5) n (%). The “Hyperglycaemia, treatment-related AE” value [1] was 11 (50) n (%), the “Hyperglycaemia, treatment-related grade ≥3 AE” value [1] was 1 (5) n (%) and the “Hypophosphatemia, treatment-related AE” value [1] was 2 (9) n (%). For the same compound, the “Hypophosphatemia, treatment-related grade ≥3 AE” value [1] was 0 (0) n (%), the “Lymphopenia, treatment-related grade ≥3 AE” value [1] was 0 (0) n (%) and the “Nausea, treatment-related AE” value [1] was 13 (59) n (%). For the same compound, the “Nausea, treatment-related grade ≥3 AE” value [1] was 1 (5) n (%), the On-study deaths [1] was 0 n (%) and the “Pruritus generalised, treatment-related AE” value [1] was 1 (5) n (%). The “Pruritus generalised, treatment-related grade ≥3 AE” value [1] was 0 (0) n (%), the “Pruritus, treatment-related AE” value [1] was 3 (14) n (%) and the “Rash maculo-papular, treatment-related AE” value [1] was 2 (9) n (%). The “Rash maculo-papular, treatment-related grade ≥3 AE” value [1] was 1 (5) n (%), the “Rash, treatment-related AE” value [1] was 3 (14) n (%) and the “Rash, treatment-related grade ≥3 AE” value [1] was 0 (0) n (%). The “Stomatitis (includes oropharyngeal pain and mucosal inflammation), treatment-related AE” value (from here on “Stomatitis … treatment-related AE”) [1] was 13 (59) n (%), the “Stomatitis, treatment-related grade ≥3 AE” value [1] was 3 (14) n (%) and the “Thrombocytopenia, treatment-related grade ≥3 AE” value [1] was 0 (0) n (%). For the same compound, the “Vomiting, treatment-related AE” value [1] was 10 (45) n (%), the “Weight decreased, treatment-related AE” value [1] was 2 (9) n (%) and the “Acute kidney injury, treatment-related AE” value (dose-escalation QW 7–40 mg) was 0 (0) n (%). For the same compound, the “Anaemia, treatment-related AE” value (dose-escalation QW 7–40 mg) was 1 (3) n (%), the “Any AE” value (dose-escalation QW 7–40 mg) was 30 (100) n (%) and the “Any AE resulting in dose modification/interruption” value (dose-escalation QW 7–40 mg) was 13 (43) n (%). The “Any AE resulting in treatment discontinuation” value (dose-escalation QW 7–40 mg) was 4 (13) n (%), the “Any SAE” value (dose-escalation QW 7–40 mg) was 10 (33) n (%) and the “Any grade ≥3 AE” value (dose-escalation QW 7–40 mg) was 18 (60) n (%). The “Any treatment-related AE” value (dose-escalation QW 7–40 mg) was 28 (93) n (%), the “Any treatment-related SAE” value (dose-escalation QW 7–40 mg) was 0 n (%) and the “Any treatment-related grade ≥3 AE” value (dose-escalation QW 7–40 mg) was 8 (27) n (%). The “Asthenia, treatment-related AE” value (dose-escalation QW 7–40 mg) was 12 (40) n (%), the “Asthenia, treatment-related grade ≥3 AE” value (dose-escalation QW 7–40 mg) was 1 (3) n (%) and the “Blood creatinine increased, treatment-related AE” value (dose-escalation QW 7–40 mg) was 3 (10) n (%). For the same compound, the “Decreased appetite, treatment-related AE” value (dose-escalation QW 7–40 mg) was 8 (27) n (%), the “Dehydration, treatment-related AE” value (dose-escalation QW 7–40 mg) was 1 (3) n (%) and the “Dehydration, treatment-related grade ≥3 AE” value (dose-escalation QW 7–40 mg) was 0 (0) n (%). The “Diarrhoea, treatment-related AE” value (dose-escalation QW 7–40 mg) was 9 (30) n (%), the “Diarrhoea, treatment-related grade ≥3 AE” value (dose-escalation QW 7–40 mg) was 1 (3) n (%) and the “Dry mouth, treatment-related AE” value (dose-escalation QW 7–40 mg) was 3 (10) n (%). The “Dysgeusia, treatment-related AE” value (dose-escalation QW 7–40 mg) was 3 (10) n (%), the “Dyspepsia, treatment-related AE” value (dose-escalation QW 7–40 mg) was 1 (3) n (%) and the “Fatigue, treatment-related AE” value (dose-escalation QW 7–40 mg) was 8 (27) n (%). The “Fatigue, treatment-related grade ≥3 AE” value (dose-escalation QW 7–40 mg) was 2 (7) n (%), the “Headache, treatment-related AE” value (dose-escalation QW 7–40 mg) was 2 (7) n (%) and the “Hypercholesterolemia, treatment-related AE” value (dose-escalation QW 7–40 mg) was 1 (3) n (%). The “Hyperglycaemia, treatment-related AE” value (dose-escalation QW 7–40 mg) was 17 (57) n (%), the “Hyperglycaemia, treatment-related grade ≥3 AE” value (dose-escalation QW 7–40 mg) was 2 (7) n (%) and the “Hypophosphatemia, treatment-related AE” value (dose-escalation QW 7–40 mg) was 0 (0) n (%). For the same compound, the “Hypophosphatemia, treatment-related grade ≥3 AE” value (dose-escalation QW 7–40 mg) was 0 (0) n (%), the “Lymphopenia, treatment-related grade ≥3 AE” value (dose-escalation QW 7–40 mg) was 1 (3) n (%) and the “Nausea, treatment-related AE” value (dose-escalation QW 7–40 mg) was 22 (73) n (%). The “Nausea, treatment-related grade ≥3 AE” value (dose-escalation QW 7–40 mg) was 0 (0) n (%), the On-study deaths (dose-escalation QW 7–40 mg) was 1 (3) n (%) and the “Pruritus generalised, treatment-related AE” value (dose-escalation QW 7–40 mg) was 0 (0) n (%). For the same compound, the “Pruritus generalised, treatment-related grade ≥3 AE” value (dose-escalation QW 7–40 mg) was 0 (0) n (%), the “Pruritus, treatment-related AE” value (dose-escalation QW 7–40 mg) was 2 (7) n (%) and the “Rash maculo-papular, treatment-related AE” value (dose-escalation QW 7–40 mg) was 0 (0) n (%). The “Rash maculo-papular, treatment-related grade ≥3 AE” value (dose-escalation QW 7–40 mg) was 0 (0) n (%), the “Rash, treatment-related AE” value (dose-escalation QW 7–40 mg) was 2 (7) n (%) and the “Rash, treatment-related grade ≥3 AE” value (dose-escalation QW 7–40 mg) was 0 (0) n (%). For the same compound, the “Stomatitis … treatment-related AE” value (dose-escalation QW 7–40 mg) was 9 (30) n (%), the “Stomatitis, treatment-related grade ≥3 AE” value (dose-escalation QW 7–40 mg) was 0 (0) n (%) and the “Thrombocytopenia, treatment-related grade ≥3 AE” value (dose-escalation QW 7–40 mg) was 0 (0) n (%). For the same compound, the “Vomiting, treatment-related AE” value (dose-escalation QW 7–40 mg) was 17 (57) n (%), the “Weight decreased, treatment-related AE” value (dose-escalation QW 7–40 mg) was 2 (7) n (%) and the “Acute kidney injury, treatment-related AE” value [2] was 1 (1) n (%). For the same compound, the “Anaemia, treatment-related AE” value [2] was 5 (4) n (%), the “Any AE” value [2] was 116 (100) n (%) and the “Any AE resulting in dose modification/interruption” value [2] was 68 (59) n (%). For the same compound, the “Any AE resulting in treatment discontinuation” value [2] was 28 (24) n (%), the “Any SAE” value [2] was 50 (43) n (%) and the “Any grade ≥3 AE” value [2] was 76 (66) n (%). For the same compound, the “Any treatment-related AE” value [2] was 112 (97) n (%), the “Any treatment-related SAE” value [2] was 17 (15) n (%) and the “Any treatment-related grade ≥3 AE” value [2] was 49 (42) n (%). For the same compound, the “Asthenia, treatment-related AE” value [2] was 37 (32) n (%), the “Asthenia, treatment-related grade ≥3 AE” value [2] was 9 (8) n (%) and the “Blood creatinine increased, treatment-related AE” value [2] was 12 (10) n (%). For the same compound, the “Decreased appetite, treatment-related AE” value [2] was 43 (37) n (%), the “Dehydration, treatment-related AE” value [2] was 5 (4) n (%) and the “Dehydration, treatment-related grade ≥3 AE” value [2] was 1 (1) n (%). For the same compound, the “Diarrhoea, treatment-related AE” value [2] was 41 (35) n (%), the “Diarrhoea, treatment-related grade ≥3 AE” value [2] was 2 (2) n (%) and the “Dry mouth, treatment-related AE” value [2] was 12 (10) n (%). For the same compound, the “Dysgeusia, treatment-related AE” value [2] was 19 (16) n (%), the “Dyspepsia, treatment-related AE” value [2] was 3 (3) n (%) and the “Fatigue, treatment-related AE” value [2] was 35 (30) n (%). The “Fatigue, treatment-related grade ≥3 AE” value [2] was 4 (3) n (%), the “Headache, treatment-related AE” value [2] was 6 (5) n (%) and the “Hypercholesterolemia, treatment-related AE” value [2] was 11 (9) n (%). For the same compound, the “Hyperglycaemia, treatment-related AE” value [2] was 75 (65) n (%), the “Hyperglycaemia, treatment-related grade ≥3 AE” value [2] was 16 (14) n (%) and the “Hypophosphatemia, treatment-related AE” value [2] was 7 (6) n (%). For the same compound, the “Hypophosphatemia, treatment-related grade ≥3 AE” value [2] was 3 (3) n (%), the “Lymphopenia, treatment-related grade ≥3 AE” value [2] was 5 (4) n (%) and the “Nausea, treatment-related AE” value [2] was 71 (61) n (%). The “Nausea, treatment-related grade ≥3 AE” value [2] was 3 (3) n (%), the On-study deaths [2] was 4 (3) n (%) and the “Pruritus generalised, treatment-related AE” value [2] was 15 (13) n (%). The “Pruritus generalised, treatment-related grade ≥3 AE” value [2] was 3 (3) n (%), the “Pruritus, treatment-related AE” value [2] was 8 (7) n (%) and the “Rash maculo-papular, treatment-related AE” value [2] was 6 (5) n (%). The “Rash maculo-papular, treatment-related grade ≥3 AE” value [2] was 3 (3) n (%), the “Rash, treatment-related AE” value [2] was 20 (17) n (%) and the “Rash, treatment-related grade ≥3 AE” value [2] was 2 (2) n (%). For the same compound, the “Stomatitis … treatment-related AE” value [2] was 56 (48) n (%), the “Stomatitis, treatment-related grade ≥3 AE” value [2] was 8 (7) n (%) and the “Thrombocytopenia, treatment-related grade ≥3 AE” value [2] was 2 (2) n (%). The “Vomiting, treatment-related AE” value [2] was 53 (46) n (%) and the “Weight decreased, treatment-related AE” value [2] was 7 (6) n (%).
